Molecular target: T1, recombinant human Syk (GST-hSyk fusion protein) (Homo sapiens, UniProt P43405)
T1 construct: purchased Carna Biosciences 08-176
Assay: Homogeneous Time-Resolved Fluorescence (HTRF) assay for the recombinant human Syk enzyme
Assay type: biochemical
Conditions: 10-dose titration, 25 μM ATP; read-out: rhSYK IC50
Procedure, shortened: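 IC50 came from a four-parameter fit over ten doses, 10 μM to 0.508 nM, with HTRF read-out (Eu-anti-pTyr antibody, SA-APC, EDTA stop, 30 min). The enzyme, 5 pM GST-hSyk, met compound for 10 min, then phosphorylated 250 nM biotin-peptide with 25 μM ATP and 5 mM Mg for 45 min at room temperature, pH 7.5.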

| IC50 [nM] | SMILES |
| --- | --- |
| 28 | Cc1cc(Nc2nccc(C(F)(F)F)n2)cc(-c2cnn(C3CCNC(=O)CC3)c2)c1 (single isomer, unassigned) [14.1 (enantiomer 1)] |
| 29.4 | Cc1cc(Nc2nccc(C)n2)cc(-c2cnn(C3CCCC(O)C3O)c2)c1 (stereo not shown) [Example 10.10, 3-(4-{3-methyl-5-[(4-methylpyrimidin-2-yl)amino]phenyl}-1H-pyrazol-1-yl)cyclohexane-1,2-diol] |

Same assay, conditions: IC50 class; 10-dose titration, 25 μM ATP; read-out: rhSYK Activity

| IC50 [nM] | SMILES |
| --- | --- |
| ≤ 100 | Cc1cc(Nc2nccc(C(F)(F)F)n2)cc(-n2cc(C(C)(O)c3ccc(C(=O)O)cc3)cn2)c1 (single isomer, unassigned) [Example 19.7, 4-{1-hydroxy-1-[1-(3-methyl-5-{[4-(trifluoromethyl)pyrimidin-2-yl]amino}phenyl)-1H-pyrazol-4-yl]ethyl}benzoic acid] |
| ≤ 100 | Cc1cc(Nc2nccc(C)n2)cc(-c2cnn(C3CCCC(O)C3O)c2)c1 (stereo not shown) [Example 10.10, 3-(4-{3-methyl-5-[(4-methylpyrimidin-2-yl)amino]phenyl}-1H-pyrazol-1-yl)cyclohexane-1,2-diol] |
| ≤ 100 | Cc1cc(Nc2nccc(C(F)(F)F)n2)cc(-c2cnn(C(C)C(N)=O)c2)c1 (stereo not shown) [Example 8.20, 2-[4-(3-methyl-5-{[4-(trifluorometh-yl)pyrimidin-2-yl]amino}phenyl)-1H-pyrazol-1-yl]propanamide] |
| ≤ 100 | Cc1cc(Nc2ncccn2)cc(-c2cnn(CC3CNC(=O)O3)c2)c1 (stereo not shown) [Example 3.116, 5-({4-[3-methyl-5-(pyrimidin-2-ylamino)phenyl]-1H-pyrazol-1-yl}methyl)-1,3-oxazolidin-2-one] |
| ≤ 100 | Cc1cc(Nc2nccc(C(F)(F)F)n2)cc(-c2cnn(CCCN3CCNC3=O)c2)c1 [Example 3.6, 1-{3-[4-(3-methyl-5-{[4-(trifluoro-methyl)pyrimidin-2-yl]amino}-phenyl)-1H-pyrazol-1-yl]-propyl}imidazolidin-2-one] |
| ≤ 100 | Cc1cc(Nc2nccc(C(F)F)n2)cc(-c2cnn(C(C[C@@H](C)O)[C@@H](C)O)c2)c1 (stereo in doubt) [Example 2.56, 3-[4-(3-{[4-(difluoromethyl)pyrimidin-2-yl]amino}-5-methylphenyl)-1H-pyrazol-1-yl]hexane-2,5-diol] |
| ≤ 100 | O=C1NCC(Cn2cc(-c3cccc(Nc4cc(C(F)F)ccn4)n3)cn2)O1 (stereo not shown) [Example 3.84, 5-{[4-(6-{[4-(difluoromethyl)pyridin-2-yl]amino}pyridin-2-yl)-1H-pyrazol-1-yl]methyl}-1,3-oxazolidin-2-one] |
| ≤ 100 | COCCOC(=O)NCCn1cc(-c2cc(C)cc(Nc3nccc(C(F)F)n3)c2)cn1 [Example 27.3, 2-methoxyethyl {2-[4-(3-{[4-(difluoromethyl)pyrimidin-2-yl]amino}-5-methylphenyl)-1H-pyrazol-1-yl]ethyl}carbamate] |
| 100 to 1000 | CCOC(=O)CCn1cc(-c2cccc(Nc3cc(C)ccn3)n2)cn1 [Example 1.23] |
| ≤ 100 | Cc1cc(Nc2cc(C(F)(F)F)ccn2)nc(-c2cnn(C)c2)c1 [Example 1.13, 4-methyl-6-(1-methyl-1H-pyrazol-4-yl)-N-[4-(trifluoromethyl)pyridin-2-yl]pyridin-2-amine] |
| ≤ 100 | Cc1cc(Nc2nccc(C(F)(F)F)n2)cc(-c2cnn(C[C@H](O)C(=O)O)c2)c1 [Example 5.17, (2S)-2-hydroxy-3-[4-(3-methyl-5-{[4-(trifluorometh-yl)pyrimidin-2-yl]amino}-phenyl)-1H-pyrazol-1-yl]propanoic acid] |
| ≤ 100 | Cc1cc(Nc2nccc(C(F)(F)F)n2)cc(-c2ccn(C)n2)c1 [Example 2.46, N-[3-methyl-5-(1-methyl-1H-pyrazol-3-yl)phenyl]-4-(trifluoromethyl)-pyrimidin-2-amine] |
| ≤ 100 | Cc1cc(Nc2nccc(C)n2)cc(-c2cnn(C[C@H](O)C(=O)O)c2)c1 [Example 11.3, (2S)-2-hydroxy-3-(4-{3-methyl-5-[(4-methylpyrimidin-2-yl)amino]phenyl}-1H-pyrazol-1-yl)-propanoic acid] |
| ≤ 100 | CCC(C(=O)O)n1cc(-c2cc(C)cc(Nc3nccc(C(F)(F)F)n3)c2)cn1 (stereo not shown) [Example 3.34, 2-[4-(3-methyl-5-{[4-(trifluoromethyl)pyrimidin-2-yl]amino}-phenyl)-1H-pyrazol-1-yl]butanoic acid] |
| ≤ 100 | Cc1cc(Nc2ncc(F)c(C(F)F)n2)cc(-c2cnn(CC(C)(O)CO)c2)c1 (single isomer, unassigned) [Example 25.9, 3-[4-(3-{[4-(difluoromethyl)-5-fluoropyrimidin-2-yl]amino}-5-methylphenyl)-1H-pyrazol-1-yl]-2-methylpropane-1,2-diol] |
| ≤ 100 | Cc1cc(Nc2nccc([C@@H](C)F)n2)cc(-c2cnn(CC(C)(O)CO)c2)c1 (single isomer, unassigned) [Example 25.8] |
| 100 to 1000 | Cc1cc(Nc2nccc(C)n2)cc(-c2cnn(CC3(O)CCOCC3)c2)c1 [Example 12.13, 4-[(4-{3-methyl-5-[(4-methylpyrimidin-2-yl)amino]phenyl}-1H-pyrazol-1-yl)methyl]-tetrahydro-2H-pyran-4-ol] |
| ≤ 100 | Cc1cc(Nc2nccc(OC(C)C)n2)cc(-c2cnn(C[C@](C)(O)CO)c2)c1 [Example 2.96, (2S)-2-methyl-3-[4-(3-methyl-5-{[4-(1-methylethoxy)pyrimidin-2-yl]amino}phenyl)-1H-pyrazol-1-yl]propane-1,2-diol] |
| ≤ 100 | COCC(=O)NCCn1cc(-c2cc(C)cc(Nc3nccc(C(F)F)n3)c2)cn1 [Example 26.5, N-{2-[4-(3-{[4-(difluoromethyl)pyrimidin-2-yl]amino}-5-methylphenyl)-1H-pyrazol-1-yl]ethyl}-2-methoxyacetamide] |
| ≤ 100 | CC(=O)C(C)n1cc(-c2cc(C)cc(Nc3nccc(C(F)F)n3)c2)cn1 (stereo not shown) [Example 3.98, 3-[4-(3-{[4-(difluoromethyl)pyrimidin-2-yl]amino}-5-methylphenyl)-1H-pyrazol-1-yl]butan-2-one] |
| 1000 to 10000 | Cc1cc(Nc2nccc(C(F)(F)F)n2)cc(-c2cc(C(F)(F)F)nn2C)c1 [Example 1.10, N-{3-methyl-5-[1-methyl-3-(trifluoromethyl)-1H-pyrazol-5-yl]phenyl}-4-(trifluoromethyl)pyrimidin-2-amine] |
| ≤ 100 | Cc1cc(Nc2nccc(C)n2)cc(-c2cnn(CC3OC(=O)NC3(C)C)c2)c1 (stereo not shown) [Example 3.105, 4,4-dimethyl-5-[(4-{3-methyl-5-[(4-methylpyrimidin-2-yl)amino]phenyl}-1H-pyrazol-1-yl)methyl]-1,3-oxazolidin-2-one] |
| ≤ 100 | Cc1cc(Nc2cc(C(F)(F)F)ccn2)nc(-c2cnn(CC(C)(O)CO)c2)c1 (stereo not shown) [Example 21.5, 2-methyl-3-[4-(4-methyl-6-{[4-(trifluoromethyl)pyridin-2-yl]amino}pyridin-2-yl)-1H-pyrazol-1-yl]propane-1,2-diol] |
| ≤ 100 | Cc1cc(Nc2nccc(C(F)(F)F)n2)cc(-c2cnn(C[C@@H](O)CC#N)c2)c1 [Example 3.47, (3S)-3-hydroxy-4-[4-(3-methyl-5-{[4-(trifluoromethyl)pyrimidin-2-yl]amino}-phenyl)-1H-pyrazol-1-yl]butanenitrile] |
| ≤ 100 | Cc1cc(Nc2nccc(C(F)(F)F)n2)cc(-c2cnn(CC(=O)NC(C)(C)C)c2)c1 [Example 3.8, N-tert-butyl-2-[4-(3-methyl-5-{[4-(trifluoromethyl)pyrimidin-2-yl]amino}-phenyl)-1H-pyrazol-1-yl]acetamide] |
| ≤ 100 | Cc1cc(Nc2nccc(C(F)(F)F)n2)cc(-c2cnn(CC3(O)CCC3)c2)c1 [Example 12.2, 1-{[4-(3-methyl-5-{[4-(trifluoro-methyl)pyrimidin-2-yl]amino}-phenyl)-1H-pyrazol-1-yl]-methyl}-cyclobutanol] |

From US9242984B2, “Pyrazolyl derivatives as Syk inhibitors” (Merck Sharp & Dohme Corp., priority 2012, dated 2016)
